Where a name gives a salt, the structure may show the parent alone. Read-outs that look alike come from different tables or passages of the source. Marks after values point to notes of the source that are not given here.
Assays:
C2C12 myotubes = assay: Total cellular protein in cultured C2C12 myotubes (in vitro model of skeletal muscle); format: cell-based; conditions: 48 hours, 10% FBS, normalized to vehicle-treated, dose-dependent
Protocol: A direct, side-by-side comparison of ursolic acid and ursolic acid-morpholine salt was performed in an in vitro model of skeletal muscle. C2C12 myoblasts were cultured and fully differentiated into post-mitotic skeletal myotubes, then incubated for 48 hours with 10% fetal bovine serum (FBS) plus the indicated concentrations of ursolic acid or ursolic acid-morpholine salt. Myotubes were then harvested for assessment of total cellular protein, which increases as myotubes undergo hypertrophy. (See Dyle et al., Systems-based discovery of tomatidine as a natural small molecule inhibitor of skeletal muscle atrophy, Journal of Biological Chemistry 289, (2014) 14913-14924.) Total protein in each sample was normalized to the amount of in vehicle-treated myotubes. […] Results are shown in FIG. 6, which is a graph depicting results from the direct, side-by-side comparison of ursolic acid and ursolic acid-morpholine salt in the cultured C2C12 myotubes in vitro model of skeletal muscle.

male C57BL/6 mice [1] = assay: Comparative grip strength testing for ursolic acid and salts thereof (standard chow, 6 weeks); format: in vivo; conditions: for Grip Strength (% Change vs. Control): 6 weeks, mean ± SEM, 12 mice
Source text: Weight-matched cohorts of 8-week old male C57BL/6 mice were randomized to receive ad libitum access to either standard chow (control) or standard chow supplemented with either 0.050% ursolic acid, 0.200% ursolic acid, or one of the indicated ursolic acid salts: ursolic acid-ethanolamine salt; ursolic acid-tris(hydroxymethyl)aminomethane salt, hereinafter referred to as ursolic acid-“tris” salt; ursolic acid-lysine salt; ursolic acid-diethanolamine salt; ursolic acid-morpholine salt; or ursolic acid-piperazine salt. The ursolic acid-diethanolamine salt and ursolic acid-morpholine salt were prepared as described above. Ursolic acid was commercially obtained, and was used as a starting material to make the other ursolic acid salts according to techniques analogous to those above and known in the art. The doses of ursolic acid salts were molar-matched to either 0.050% ursolic acid (i.e. 0.057% ursolic acid-ethanolamine salt, 0.063% ursolic acid-tris salt, 0.066% ursolic acid-lysine salt, 0.059% ursolic acid-morpholine salt, and 0.059% ursolic acid-piperazine salt) or to 0.048% ursolic acid (i.e. 0.060% ursolic acid-diethanolamine salt). After mice had consumed these diets for 6 weeks, in vivo grip strength was measured.

male C57BL/6 mice [2] = assay: Direct comparison to molar-matched ursolic acid in obesity-induced glucose intolerance (high-fat chow, 7 weeks); format: in vivo; conditions: 6 h fast, 0.050% ursolic acid or 0.059% morpholine salt, P<0.01
Protocol: Weight-matched cohorts of 8-week old male C57BL/6 mice were randomized to receive ad libitum access to either high-fat chow supplemented with 0.050% ursolic acid, or high-fat chow supplemented with a molar-matched dose of ursolic acid-morpholine salt (0.059%). After mice had consumed the diets for 7 weeks, mice were fasted for 6 hours and then subjected to glucose tolerance testing. […] Data are means±SEM from 10 mice per cohort.

male C57BL/6 mice [3] = conditions: high-fat chow, 8 weeks, 0.500% Ursolic Acid or 0.059% morpholine salt
Source text: Weight-matched cohorts of 8-week old male C57BL/6 mice were randomized to receive ad libitum access to either high-fat chow (control), high-fat chow supplemented with 0.050% ursolic acid, or high-fat chow supplemented with a molar-matched dose of ursolic acid-morpholine salt (0.059%). Just prior to starting these diets, mice were weighed and subjected to body composition analysis by NMR. After mice had consumed the diets for 8 weeks, body weight and body composition were re-assessed, retroperitoneal and epididymal fat pads were dissected and weighed, and skeletal muscles (tibialis anterior, gastrocnemius, soleus, quadriceps and triceps) were dissected and weighed. In each mouse, the total dissected skeletal muscle weight (combined weight of bilateral tibialis anterior, gastrocnemius, soleus, quadriceps and triceps muscles) was normalized to the final body weight. Data are means±SEM from 10 mice per cohort.

male C57BL/6 mice [4] = assay: Ursolic acid-diethanolamine salt: body weight and composition testing (standard chow, 7 weeks); format: in vivo
Protocol: After mice had consumed these diets for 7 weeks, mice were weighed and body composition was assessed by NMR. Data are means±SEM from 15 mice per cohort. *P<0.05.

[5] = standard chow supplemented, doses molar-matched to 0.050% ursolic acid (0.048% for diethanolamine salt): 0.050% ursolic acid, 0.057% ethanolamine, 0.063% tris, 0.066% lysine, 0.060% diethanolamine, 0.059% morpholine, 0.059% piperazine salt

Structure (SMILES): C[C@H]1[C@H](C)CC[C@]2(C(=O)O)CC[C@]3(C)C(=CC[C@@H]4[C@@]5(C)CC[C@H](O)C(C)(C)C5CC[C@]43C)[C@H]12 (stereo partly drawn) [Ursolic Acid, Ursolic acid]
- Total cellular protein (FIG. 6) (C2C12 myotubes): significantly increased
- Grip Strength (% Change vs. Control) (male C57BL/6 mice [1]; [5]): 7.7 ± 1.9%
- Grip Strength (% Change vs. Control) (male C57BL/6 mice [1]; standard chow with 0.200% ursolic acid): 9.9 ± 2.2 %
- Fasting blood glucose (male C57BL/6 mice [2]): 166.3 ± 3.7 mg/dL
- Glucose tolerance test area under the curve (AUC) (male C57BL/6 mice [2]): 40,585±1,357
- Epididymal Fat Pad Wt (male C57BL/6 mice [3]): 2208.6 ± 52.0 ^a mg
- Final % Fat (male C57BL/6 mice [3]): 39.8 ± 0.7 ^a %
- Final % Lean (male C57BL/6 mice [3]): 50.4 ± 0.5 ^a %
- Final Body Wt (male C57BL/6 mice [3]): 40.8 ± 0.5 ^a g
- Final Fat Mass (male C57BL/6 mice [3]): 16.3 ± 0.3 ^a g
- Final Lean Mass (male C57BL/6 mice [3]): 20.6 ± 0.3 ^a g
- Retroperitoneal Fat Pad Wt (male C57BL/6 mice [3]): 986.1 ± 21.8 ^a mg
- Skeletal Muscle Wt (mg/g Final Body Wt) (male C57BL/6 mice [3]; total dissected muscle weight normalized to final body weight): 25.5 ± 0.4 ^a mg/g Final Body Wt

Structure (SMILES): C[C@H]1[C@H](C)CC[C@]2(C(=O)O)CC[C@]3(C)C(=CCC4[C@@]5(C)CC[C@H](O)C(C)(C)C5CC[C@]43C)[C@H]12 (stereo partly drawn) [Ursolic Acid-Diethanolamine Salt, ursolic acid diethanolamine salt]
- Potency and efficacy compared with native ursolic acid and other ursolic acid salts (male C57BL/6 mice [1]; conclusion from Table I grip strength data): more potent and efficacious
- Grip Strength (% Change vs. Control) (male C57BL/6 mice [1]; [5]): 11.7 ± 2.5 %
- Final % Fat (male C57BL/6 mice [4]; 0.060% in standard chow): 16.6 ± 2.0%
- Final % Lean (male C57BL/6 mice [4]; 0.060% in standard chow): 64.2 ± 1.6%
- Final Body Wt (male C57BL/6 mice [4]; 0.060% in standard chow): 31.7 ± 0.5 g
- Final Fat Mass (male C57BL/6 mice [4]; 0.060% in standard chow): 5.3 ± 0.7 g
- Final Lean Mass (male C57BL/6 mice [4]; 0.060% in standard chow): 20.3 ± 0.4* g
- Final % Fat (male C57BL/6 mice [4]; 0.180% in standard chow): 14.1 ± 1.8* %
- Final % Lean (male C57BL/6 mice [4]; 0.180% in standard chow): 65.5 ± 1.4* %
- Final Body Wt (male C57BL/6 mice [4]; 0.180% in standard chow): 30.7 ± 0.5 g
- Final Fat Mass (male C57BL/6 mice [4]; 0.180% in standard chow): 4.4 ± 0.6* g
- Final Lean Mass (male C57BL/6 mice [4]; 0.180% in standard chow): 20.0 ± 0.3 g
- Lean mass and fat mass (conclusion) (male C57BL/6 mice [4]; conclusion from Table IV, standard chow): increased lean mass and decreased fat mass

Structure (SMILES): CC1CCC2(C(=O)O)CCC3(C)C(=CCC4C5(C)CCC(O)C(C)(C)C5CCC43C)C2C1C.NCCO (stereo not drawn) [Ursolic Acid-Ethanolamine Salt, ursolic acid-ethanolamine salt]
- Grip Strength (% Change vs. Control) (male C57BL/6 mice [1]; [5]): 2.8 ± 1.6%

Structure (SMILES): CC1CCC2(C(=O)O)CCC3(C)C(=CCC4C5(C)CCC(O)C(C)(C)C5CCC43C)C2C1C.NCCCCC(N)C(=O)O (stereo not drawn) [Ursolic Acid-Lysine Salt, ursolic acid-lysine salt]
- Grip Strength (% Change vs. Control) (male C57BL/6 mice [1]; [5]): 7.2 ± 2.3%

Structure (SMILES): C1CNCCN1.C[C@H]1[C@H](C)CC[C@]2(C(=O)O)CC[C@]3(C)C(=CC[C@@H]4[C@@]5(C)CC[C@H](O)C(C)(C)[C@@H]5CC[C@]43C)[C@H]12 [Ursolic Acid-Piperazine Salt, ursolic acid-piperazine salt]
- Grip Strength (% Change vs. Control) (male C57BL/6 mice [1]; [5]): 3.7 ± 2.5%

Structure (SMILES): CC1CCC2(C(=O)O)CCC3(C)C(=CCC4C5(C)CCC(O)C(C)(C)C5CCC43C)C2C1C.NC(CO)(CO)CO (stereo not drawn) [Ursolic Acid-Tris Salt, ursolic acid-tris(hydroxymethyl)aminomethane salt]
- Grip Strength (% Change vs. Control) (male C57BL/6 mice [1]; [5]): 5.2 ± 1.6%

Source: patent US12391726B2, “Ursolic acid morpholine salt” (EMMYON, INC., priority 2017, dated 2025)
